Test results reported in patent US10017492B2 (KANGPU BIOPHARMACEUTICALS, LTD., priority 2014, dated 2018).
Like-named read-outs stand apart in the source and are kept apart here.

What was measured:
TNF-α = TNF-α activity inhibiting assay (LPS-stimulated peripheral blood, ELISA); type: cell-based, human; settings: compound 100 nM, diluted peripheral blood of healthy volunteers, LPS 10 ng/mL, 6 hours; for inhibition at 0.1 µM: Homo sapiens, read-out: Inhibitory Rate on TNF-α (%)
Method: TNF-α Activity Inhibiting Assay
Peripheral blood from healthy volunteers was collected and collected with EDTA anticoagulant tubes. After being diluted 5-fold with 1640 medium (Gibco, catalog number 11875-093, USA), the blood was added to 96-well cell culture plates (Costar, catalog number 3599, USA) and then treated with 10 μL solution of the compound of general formula (I) of the present invention in DMSO (Sigma, catalog number D2650, USA). The final concentration of the compound was 100 nM, and the final concentration of DMSO was 0.2%. After incubation for 60 minutes in an incubator at 37° C. under 5% CO2, 10 μL LPS (Sigma, catalog number L-2880, USA) was added to the reaction system, and the final concentration was 10 ng/mL. After further culturing for 6 hours in the incubator at 37° C. under 5% CO2, the supernatant was collected. The content of TNF-α was determined by ELISA (BD Biosciences, catalog number 555212, USA). Absorbance was detected at OD450 nm with a microplate reader, with OD 650 nm as reference. The control, a solution containing 0.2% DMSO medium, was as 0% inhibition. Raw data and standard curves were recorded. The four-parameter drug inhibition curve was plotted by XL-fit software and the inhibition rate of each compound was calculated, as shown in Table 1.

[1] = system: MM.1S cells (myeloma cells); experiment: Cell proliferation assay (MTS), MM.1S myeloma cells; type: cell-based; settings: 72 hours, read-out: IC50 values of MMIS Inhibition
Method: MM.1S cells (myeloma cells) (ATCC, catalog number CRL-2974) were seeded at 1.8×10^3 per well to a 96-well culture plate containing […] (Gibco, catalog number A10491-01), and were incubated in an incubator for 24 hours at 37° C. under 5% CO2. Compounds were prepared as 20 mM stock solutions with DMSO (Sigma, catalog number D2650), and were diluted with the medium to the desired concentration (the final concentration of DMSO was 0.5%) and then were added to each well, incubated in an incubator for 72 hours at 37° C. under 5% CO2. Then, 20 μL MTS (Promega, catalog number G3581) was added to each well, and further incubated for 1-4 hours in an incubator at 37° C. under 5% CO2. OD490 nm was detected with OD650 nm as reference. The control, a solution containing 0.5% DMSO medium, was as 0% inhibition. GraphPad Prism 5 was used, slope was allowed to change to make the dose-effect curve and IC50 values were calculated, shown in table 2 for details.

Structure (SMILES) | IC50 ([1]; Homo sapiens, MM1.S) [nM] | IC50 [1] [nM] | inhibition at 0.1 µM (TNF-α) [%] | Inhibitory Rate on TNF-α (%) (TNF-α)
COc1ccc(CNc2cccc3c2CN(C2CCC(=O)NC2=O)C3=O)cc1OC (centres unmarked) [Compound A349, 3-(4-((3,4-dimethoxybenzyl)amino)-1-oxoisoindolin-2-yl)piperidine-2,6-dione] | ≥ 300 | – | < 50 | –
COc1ccc(F)c(COc2cccc3c2CN(C2CCC(=O)NC2=O)C3=O)c1 (centres unmarked) [Compound A331, 3-(4-((2-fluoro-5-methoxybenzyl)oxy)-1-oxoisoindolin-2-yl)piperidine-2,6-dione] | < 300 | – | ≥ 50 | –
CN(C)CCOc1ccc(F)c(CNc2cccc3c2CN(C2CCC(=O)NC2=O)C3=O)c1 (centres unmarked) [Compound A363, 3-(4-((5-(2-(Dimethylamino)ethoxy)-2-fluorobenzyl)amino)-1-oxoisoindolin-2-yl)piperidine-2,6-dione] | ≥ 300 | – | < 50 | –
COc1ccc(F)c(CNc2cccc3c2CN([C@H]2CCC(=O)NC2=O)C3=O)c1 [Compound A340, (S)-3-(4-((2-fluoro-5-methoxybenzyl)amino)-1-oxoisoindolin-2-yl)piperidine-2,6-dione] | < 300 | – | < 50 | –
COc1cc(CNc2cccc3c2CN(C2CCC(=O)NC2=O)C3=O)cc(OC)c1 (centres unmarked) [Compound A355, 3-(4-((3,5-dimethoxybenzyl)amino)-1-oxoisoindolin-2-yl)piperidine-2,6-dione] | ≥ 300 | – | < 50 | –
Cc1cc(CNc2cccc3c2CN(C2CCC(=O)NC2=O)C3=O)ccc1F (centres unmarked) [Compound A351, 3-(4-((4-fluoro-3-methylbenzyl)amino)-1-oxoisoindolin-2-yl)piperidine-2,6-dione] | < 300 | – | < 50 | –
Cc1ccc(CNc2cccc3c2CN(C2CCC(=O)NC2=O)C3=O)cc1F (centres unmarked) [Compound A353, 3-(4-((3-fluoro-4-methylbenzyl)amino)-1-oxoisoindolin-2-yl)piperidine-2,6-dione] | < 300 | – | < 50 | –
O=C1CCC(N2Cc3c(NCc4cccc(O)c4F)cccc3C2=O)C(=O)N1 (centres unmarked) [Compound A359, 3-(4-((2-fluoro-3-hydroxybenzyl)amino)-1-oxoisoindolin-2-yl)piperidine-2,6-dione] | < 300 | – | ≥ 50 | –
O=C1CCC(N2Cc3c(NCc4cc(OCCOC(=O)N5CCCC5)ccc4F)cccc3C2=O)C(=O)N1 (centres unmarked) [Compound A374, 2-(3-(((2-(2,6-dioxopiperidin-3-yl)-1-oxoisoindolin-4-yl)amino)methyl)-4-fluorophenoxy)ethyl pyrrolidine-1-carboxylate] | < 300 | – | ≥ 50 | –
CNC(=O)c1cccc(CNc2cccc3c2CN(C2CCC(=O)NC2=O)C3=O)c1F (centres unmarked) [Compound A362, 3-(((2-(2,6-Dioxopiperidin-3-yl)-1-oxoisoindolin-4-yl)amino)methyl)-2-fluoro-N-methylbenzamide] | ≥ 300 | – | < 50 | –
O=C1CC[C@H](N2Cc3c(NCc4ccc(CN5CCOCC5)cc4)cccc3C2=O)C(=O)N1 [Compound A346, (S)-3-(4-((4-(morpholinomethyl)benzyl)amino)-1-oxoisoindolin-2-yl) piperidine-2,6-dione] | < 300 | – | ≥ 50 | –
COCCOc1ccc(F)c(CNc2cccc3c2CN(C2CCC(=O)NC2=O)C3=O)c1 (centres unmarked) [Compound A370, 3-(4-((2-fluoro-5-(2-methoxyethoxy)benzyl)amino)-1-oxoisoindolin-2-yl)piperidine-2,6-dione] | ≥ 300 | – | < 50 | –
N#Cc1cccc(CNc2cccc3c2CN(C2CCC(=O)NC2=O)C3=O)c1F (centres unmarked) [Compound A360, 3-(((2-(2,6-dioxopiperidin-3-yl)-1-oxoisoindolin-4-yl)amino)methyl)-2-fluorobenzonitrile] | < 300 | – | < 50 | –
COc1ccc(CNc2cc(F)cc3c2CN(C2CCC(=O)NC2=O)C3=O)c(F)c1 (centres unmarked) [Compound A319, 3-(6-fluoro-4-((2-fluoro-4-methoxybenzyl)amino)-1-oxoisoindolin-2-yl)-piperidine-2,6-dione] | ≥ 300 | – | < 50 | –
O=C1CCC(N2Cc3c(OCc4ccc(CN5CCOCC5)cc4)cc(F)cc3C2=O)C(=O)N1 (centres unmarked) [Compound A327, 3-(6-fluoro-4-((4-(morpholinomethyl)benzyl)oxy)-1-oxoisoindolin-2-yl)-piperidine-2,6-dione] | < 300 | – | < 50 | –
COc1ccc(F)c(CNc2cc(F)cc3c2CN(C2CCC(=O)NC2=O)C3=O)c1 (centres unmarked) [Compound A320, 3-(6-fluoro-4-((2-fluoro-5-methoxybenzyl)amino)-1-oxoisoindolin-2-yl)-piperidine-2,6-dione] | ≥ 300 | – | < 50 | –
NC(=O)c1cccc(CNc2cccc3c2CN(C2CCC(=O)NC2=O)C3=O)c1F (centres unmarked) [Compound A361, 3-(((2-(2,6-Dioxopiperidin-3-yl)-1-oxoisoindolin-4-yl)amino)methyl)-2-fluorobenzamide] | < 300 | – | ≥ 50 | –
O=C1CCC(N2Cc3c(OCc4ccccc4F)cccc3C2=O)C(=O)N1 (centres unmarked) [Compound A336, 3-[4-(2-Fluoro-benzyloxy)-1-oxo-1,3-dihydro-isoindol-2-yl]-piperidine-2,6-dione] | < 300 | – | – | –
[2H]C1(N2Cc3c(N)cc(F)cc3C2=O)CCC(=O)NC1=O (racemic) [Compound I-01] | – | – | > 50 | –

Now from value to compound, other results behind:

IC50 ([1]; Homo sapiens, MM1.S) [nM] | IC50 [1] [nM] | Structure (SMILES) | inhibition at 0.1 µM (TNF-α) [%] | Inhibitory Rate on TNF-α (%) (TNF-α)
< 300 | – | Nc1cccc(CNc2cccc3c2CN(C2CCC(=O)NC2=O)C3=O)c1F (centres unmarked) [Compound A384, 3-(4-((3-amino-2-fluorobenzyl)amino)-1-oxoisoindolin-2-yl)piperidine-2,6-dione] | ≥ 50 | –
– | < 300 | [2H]C1(N2Cc3c(NCc4ccc(CN5CCOCC5)cc4F)cccc3C2=O)CCC(=O)NC1=O (centres unmarked) [Compound A426] | – | ≥50
< 300 | – | [2H][C@]1(N2Cc3c(NCc4cc(CN5CCOCC5)ccc4F)cccc3C2=O)CCC(=O)NC1=O [Compound A401, (S)-3-deuterium-3-(4-((2-fluoro-5-(morpholinomethyl)benzyl)amino)-1-oxoisoindolin-2-yl)piperidine-2,6-dione] | ≥ 50 | –
< 300 | – | [2H][C@]1(N2Cc3c(NCc4ccc(CN5CCOCC5)cc4)cccc3C2=O)CCC(=O)NC1=O [Compound A373, (S)-3-deuterium-3-(4-((4-(morpholinomethyl)benzyl)amino)-1-oxoisoindolin-2-yl)piperidine-2,6-dione] | ≥ 50 | –
< 300 | – | CNc1cccc(CNc2cccc3c2CN(C2CCC(=O)NC2=O)C3=O)c1F (centres unmarked) [Compound A372, 3-(4-((2-fluoro-3-(methylamino)benzyl)amino)-1-oxoisoindolin-2-yl)piperidine-2,6-dione] | ≥ 50 | –
≥ 300 | – | O=C1CCC(N2Cc3c(NCc4ccc(CN5CCOCC5)cc4)cc(F)cc3C2=O)C(=O)N1 (centres unmarked) [Compound A405, 3-(6-fluoro-4-((4-(morpholinomethyl)benzyl)amino)-1-oxoisoindolin-2-yl)piperidine-2,6-dione] | < 50 | –
– | < 300 | [2H]C1(N2Cc3c(OCc4ccc(CN5CCOCC5)cc4F)cccc3C2=O)CCC(=O)NC1=O (centres unmarked) [Compound A425, 3-deuterium-3-(4-((2-fluoro-5-(morpholinomethyl)benzyl)oxy)-1-oxoisoindolin-2-yl)piperidine-2,6-dione] | – | ≥50
≥ 300 | – | CN1CCN(CCOc2ccc(F)c(CNc3cccc4c3CN(C3CCC(=O)NC3=O)C4=O)c2)CC1 (centres unmarked) [Compound A377, 3-(4-((2-fluoro-5-(2-(4-methylpiperazin-1-yl)ethoxy)benzyl)amino)-1-oxoisoindolin-2-yl)piperidine-2,6-dione] | < 50 | –
≥ 300 | – | CNc1ccc(F)c(COc2cccc3c2CN(C2CCC(=O)NC2=O)C3=O)c1 (centres unmarked) [Compound A390, 3-(4-((2-fluoro-5-(methylamino)benzyl)oxy)-1-oxoisoindolin-2-yl)piperidine-2,6-dione] | ≥ 50 | –
≥ 300 | – | Nc1ccc(F)c(CNc2cccc3c2CN(C2CCC(=O)NC2=O)C3=O)c1 (centres unmarked) [Compound A391, 3-(4-((5-amino-2-fluorobenzyl)amino)-1-oxoisoindolin-2-yl)piperidine-2,6-dione] | ≥ 50 | –
